Measured values as given in PMC10175918 (Communications Biology, 2023).
Read-outs that look alike come from different tables or passages of the source.

Key:
Assay in all cases: TGFα-shedding assay-based GPCR screening with chimeric Gα subunit proteins
Assay type in all cases: cell-based
348 GPCRs [1] = molecular target: T1, 348 GPCRs (Homo sapiens, UniProt P20309)
T1 construct: expressed in transfected cells; host or cells: HEK293A

348 GPCRs [2] = molecular target: T2, 348 GPCRs (Homo sapiens, UniProt P32241)
T2 construct: expressed in transfected cells; host or cells: HEK293A
T2 sequence (P32241 31-457): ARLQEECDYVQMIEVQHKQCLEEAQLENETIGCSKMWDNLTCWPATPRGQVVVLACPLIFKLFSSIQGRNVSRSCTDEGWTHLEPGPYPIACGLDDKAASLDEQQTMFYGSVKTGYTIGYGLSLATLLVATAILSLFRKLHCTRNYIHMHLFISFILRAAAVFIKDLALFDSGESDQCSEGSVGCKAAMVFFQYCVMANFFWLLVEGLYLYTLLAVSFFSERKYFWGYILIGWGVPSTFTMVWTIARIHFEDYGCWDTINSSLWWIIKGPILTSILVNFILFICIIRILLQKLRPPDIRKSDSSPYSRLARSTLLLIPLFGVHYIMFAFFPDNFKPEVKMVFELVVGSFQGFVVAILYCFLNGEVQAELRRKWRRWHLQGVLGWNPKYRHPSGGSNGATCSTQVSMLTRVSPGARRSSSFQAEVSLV

348 GPCRs [3] = molecular target: T3, 348 GPCRs (Homo sapiens, UniProt P21452); settings: 10µM, Favipiravir 100μM
T3 construct: expressed in transfected cells; host or cells: HEK293A
T3 sequence (P21452 1-398): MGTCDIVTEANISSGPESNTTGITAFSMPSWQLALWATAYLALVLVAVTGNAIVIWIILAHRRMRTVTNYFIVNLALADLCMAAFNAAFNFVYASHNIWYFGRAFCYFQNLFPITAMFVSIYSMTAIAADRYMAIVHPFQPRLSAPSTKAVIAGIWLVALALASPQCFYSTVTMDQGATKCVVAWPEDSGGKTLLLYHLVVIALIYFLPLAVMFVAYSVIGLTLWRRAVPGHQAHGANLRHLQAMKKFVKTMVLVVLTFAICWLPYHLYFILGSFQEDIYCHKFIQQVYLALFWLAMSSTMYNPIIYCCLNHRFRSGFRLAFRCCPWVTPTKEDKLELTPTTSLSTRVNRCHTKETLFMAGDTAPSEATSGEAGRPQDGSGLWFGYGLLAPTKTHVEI

348 GPCRs [4] = molecular target: 348 GPCRs (Homo sapiens, UniProt O95665); settings: NTSR2 (neurotensin receptor type 2); 10µM, Favipiravir 100μM
348 GPCRs [5] = molecular target: T4, 348 GPCRs (Homo sapiens, UniProt Q03431); settings: 10µM, Favipiravir 100μM
T4 sequence (Q03431 27-593): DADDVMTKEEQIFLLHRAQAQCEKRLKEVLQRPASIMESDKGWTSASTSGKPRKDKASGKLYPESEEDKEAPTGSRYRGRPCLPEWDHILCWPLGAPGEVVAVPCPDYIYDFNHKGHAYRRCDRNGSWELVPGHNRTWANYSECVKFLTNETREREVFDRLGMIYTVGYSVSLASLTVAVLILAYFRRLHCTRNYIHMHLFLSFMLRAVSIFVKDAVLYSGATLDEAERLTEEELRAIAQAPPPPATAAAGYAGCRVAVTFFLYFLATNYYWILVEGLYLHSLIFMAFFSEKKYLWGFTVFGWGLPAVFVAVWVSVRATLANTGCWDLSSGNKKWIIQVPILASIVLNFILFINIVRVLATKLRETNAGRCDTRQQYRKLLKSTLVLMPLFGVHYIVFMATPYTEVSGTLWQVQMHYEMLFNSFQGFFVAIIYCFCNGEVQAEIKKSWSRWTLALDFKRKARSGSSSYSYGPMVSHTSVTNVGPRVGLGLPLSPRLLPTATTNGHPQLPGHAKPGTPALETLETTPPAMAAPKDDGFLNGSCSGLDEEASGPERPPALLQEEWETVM

348 GPCRs [6] = molecular target: T5, 348 GPCRs (Homo sapiens, UniProt Q9BXC0); settings: 10µM, Favipiravir 100μM
T5 construct: expressed in transfected cells; host or cells: HEK293A

348 GPCRs [7] = molecular target: T6, 348 GPCRs (Homo sapiens, UniProt Q9BXA5); settings: 10µM, Favipiravir 100μM
T6 construct: expressed in transfected cells; host or cells: HEK293A
T6 sequence (Q9BXA5 1-334): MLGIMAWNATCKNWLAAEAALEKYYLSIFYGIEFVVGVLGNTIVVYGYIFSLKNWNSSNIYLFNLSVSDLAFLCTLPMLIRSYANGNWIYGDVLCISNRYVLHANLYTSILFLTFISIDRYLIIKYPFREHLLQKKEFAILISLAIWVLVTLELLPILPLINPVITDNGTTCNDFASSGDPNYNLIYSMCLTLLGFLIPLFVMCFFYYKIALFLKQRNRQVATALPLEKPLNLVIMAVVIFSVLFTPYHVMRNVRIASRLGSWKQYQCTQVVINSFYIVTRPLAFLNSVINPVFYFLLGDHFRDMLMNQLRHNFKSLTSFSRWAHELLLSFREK

348 GPCRs [8] = molecular target: T7, 348 GPCRs (Homo sapiens, UniProt P33032)
T7 construct: expressed in transfected cells; host or cells: HEK293A

348 GPCRs [9] = molecular target: T8, 348 GPCRs (Homo sapiens, UniProt Q9BZJ7)
T8 construct: expressed in transfected cells; host or cells: HEK293A

348 GPCRs [10] = molecular target: T9, 348 GPCRs (Homo sapiens, UniProt Q9NYV8); settings: 10µM, Favipiravir 100μM
T9 construct: expressed in transfected cells; host or cells: HEK293A
T9 sequence (Q9NYV8 1-317): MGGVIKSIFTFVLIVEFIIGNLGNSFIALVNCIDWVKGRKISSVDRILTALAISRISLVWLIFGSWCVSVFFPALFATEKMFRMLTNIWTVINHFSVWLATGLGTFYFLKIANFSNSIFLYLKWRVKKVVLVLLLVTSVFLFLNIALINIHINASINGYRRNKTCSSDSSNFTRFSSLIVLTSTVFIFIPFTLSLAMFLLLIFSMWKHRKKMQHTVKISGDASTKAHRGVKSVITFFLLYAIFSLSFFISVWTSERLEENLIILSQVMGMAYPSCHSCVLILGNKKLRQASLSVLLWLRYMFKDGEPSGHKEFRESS

[11] = GPCR M3 (Muscarinic acetylcholine receptor M3), read-out: % GPCR activation compared to TPA
[12] = GPCR VIPR1 (vasoactive intestinal peptide receptor 1), read-out: % GPCR activation compared to TPA
[13] = NK2 (tachykinin receptor 2), read-out: % GPCR activation compared to TPA
[14] = PTH1R (parathyroid hormone 1 receptor), read-out: % GPCR activation compared to TPA
[15] = GPR81 (hydroxycarboxylic acid receptor 1), read-out: % GPCR activation compared to TPA
[16] = SUCNR1 (succinate receptor 1), read-out: % GPCR activation compared to TPA
[17] = GPCR MC5R (melanocortin 5 receptor), read-out: % GPCR activation compared to TPA
[18] = GPCR GPR62 (G protein-coupled receptor 62), read-out: % GPCR activation compared to TPA
[19] = TAS2R14 (taste receptor, type 2, member 14), read-out: % GPCR activation compared to TPA
[20] = read-out: % GPCR activation compared to TPA, GPCR M3 (Muscarinic acetylcholine receptor M3)
[21] = read-out: % GPCR activation compared to TPA, GPCR VIPR1 (vasoactive intestinal peptide receptor 1)
[22] = read-out: % GPCR activation compared to TPA, NK2 (tachykinin receptor 2)
[23] = read-out: % GPCR activation compared to TPA, PTH1R (parathyroid hormone 1 receptor)
[24] = read-out: % GPCR activation compared to TPA, GPR81 (hydroxycarboxylic acid receptor 1)
[25] = read-out: % GPCR activation compared to TPA, SUCNR1 (succinate receptor 1)
[26] = read-out: % GPCR activation compared to TPA, GPCR MC5R (melanocortin 5 receptor)
[27] = read-out: % GPCR activation compared to TPA, GPCR GPR62 (G protein-coupled receptor 62)
[28] = read-out: % GPCR activation compared to TPA, TAS2R14 (taste receptor, type 2, member 14)

T7 sequence (P33032 whole entry): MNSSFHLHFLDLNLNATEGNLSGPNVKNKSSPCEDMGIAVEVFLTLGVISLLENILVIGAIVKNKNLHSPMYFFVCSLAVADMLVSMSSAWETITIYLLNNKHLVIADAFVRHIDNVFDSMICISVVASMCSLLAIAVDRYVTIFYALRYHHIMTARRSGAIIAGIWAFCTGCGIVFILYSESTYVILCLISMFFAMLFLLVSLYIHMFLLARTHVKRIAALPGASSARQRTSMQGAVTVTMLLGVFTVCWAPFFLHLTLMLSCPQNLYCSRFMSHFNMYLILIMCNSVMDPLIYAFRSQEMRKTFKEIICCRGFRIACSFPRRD
T5 sequence (Q9BXC0 whole entry): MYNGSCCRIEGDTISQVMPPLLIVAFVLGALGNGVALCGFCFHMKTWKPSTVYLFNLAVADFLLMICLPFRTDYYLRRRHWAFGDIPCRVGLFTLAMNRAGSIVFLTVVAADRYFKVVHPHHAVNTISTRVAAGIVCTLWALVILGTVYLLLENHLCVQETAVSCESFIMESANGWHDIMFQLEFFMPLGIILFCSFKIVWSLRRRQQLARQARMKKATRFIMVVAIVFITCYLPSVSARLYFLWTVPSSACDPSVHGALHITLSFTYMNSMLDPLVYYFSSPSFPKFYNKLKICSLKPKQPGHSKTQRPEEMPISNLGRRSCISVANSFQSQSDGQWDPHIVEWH
T1 sequence (P20309 whole entry): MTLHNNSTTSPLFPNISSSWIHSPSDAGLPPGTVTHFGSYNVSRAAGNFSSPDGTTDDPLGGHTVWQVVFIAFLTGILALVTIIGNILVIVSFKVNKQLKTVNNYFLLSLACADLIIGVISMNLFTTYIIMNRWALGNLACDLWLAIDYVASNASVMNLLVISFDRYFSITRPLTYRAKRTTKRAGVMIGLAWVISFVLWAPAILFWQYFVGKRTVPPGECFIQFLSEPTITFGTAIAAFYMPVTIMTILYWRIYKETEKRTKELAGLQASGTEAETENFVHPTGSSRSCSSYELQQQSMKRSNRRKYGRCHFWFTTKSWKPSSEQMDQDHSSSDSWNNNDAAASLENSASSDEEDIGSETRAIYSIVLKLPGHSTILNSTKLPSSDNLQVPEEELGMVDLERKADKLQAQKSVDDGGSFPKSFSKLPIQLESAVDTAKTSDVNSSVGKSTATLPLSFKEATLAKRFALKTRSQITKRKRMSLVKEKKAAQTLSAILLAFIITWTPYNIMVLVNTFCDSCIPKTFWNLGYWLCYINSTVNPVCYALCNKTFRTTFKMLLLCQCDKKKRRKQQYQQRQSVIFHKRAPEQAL
T8 sequence (Q9BZJ7 whole entry): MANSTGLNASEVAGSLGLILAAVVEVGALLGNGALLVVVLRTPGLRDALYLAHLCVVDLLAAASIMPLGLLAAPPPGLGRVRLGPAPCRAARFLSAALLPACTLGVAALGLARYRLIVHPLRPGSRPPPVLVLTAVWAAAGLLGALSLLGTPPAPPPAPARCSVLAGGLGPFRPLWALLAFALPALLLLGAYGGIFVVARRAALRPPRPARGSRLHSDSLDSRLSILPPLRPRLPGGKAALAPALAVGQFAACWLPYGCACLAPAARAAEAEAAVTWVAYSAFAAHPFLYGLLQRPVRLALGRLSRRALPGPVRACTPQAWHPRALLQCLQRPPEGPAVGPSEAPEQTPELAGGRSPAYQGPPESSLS
Sequence of 348 GPCRs (Homo sapiens, UniProt O95665) (O95665 whole entry): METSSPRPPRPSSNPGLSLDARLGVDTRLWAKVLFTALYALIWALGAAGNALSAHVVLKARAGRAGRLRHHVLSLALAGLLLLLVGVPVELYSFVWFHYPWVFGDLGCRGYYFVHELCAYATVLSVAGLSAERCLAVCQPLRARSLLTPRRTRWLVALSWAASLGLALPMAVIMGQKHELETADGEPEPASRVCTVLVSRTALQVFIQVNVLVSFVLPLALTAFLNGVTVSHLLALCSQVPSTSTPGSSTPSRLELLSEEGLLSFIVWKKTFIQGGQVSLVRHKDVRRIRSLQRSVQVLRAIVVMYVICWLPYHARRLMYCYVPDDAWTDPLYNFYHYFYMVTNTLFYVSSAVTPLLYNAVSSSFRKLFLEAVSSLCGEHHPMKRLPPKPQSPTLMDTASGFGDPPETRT

Row | activation at 10 µM (348 GPCRs [1]; [11]) [%] | activation at 10 µM (348 GPCRs [2]; [12]) [%] | activation at 10 µM (348 GPCRs [3]; [13]) [%] | % GPCR activation compared to TPA (348 GPCRs [4]) [%] | activation at 100 µM (348 GPCRs [5]; [14]) [%] | activation at 100 µM (348 GPCRs [6]; [15]) [%] | activation at 10 µM (348 GPCRs [7]; [16]) [%] | activation at 10 µM (348 GPCRs [8]; [17]) [%] | activation at 10 µM (348 GPCRs [9]; [18]) [%] | activation at 100 µM (348 GPCRs [10]; [19]) [%] | Structure (SMILES) | activation at 10 µM (348 GPCRs [1]; [20]) [%] | activation at 10 µM (348 GPCRs [2]; [21]) [%] | activation at 10 µM (348 GPCRs [3]; [22]) [%] | activation at 100 µM (348 GPCRs [5]; [23]) [%] | activation at 100 µM (348 GPCRs [6]; [24]) [%] | activation at 10 µM (348 GPCRs [7]; [25]) [%] | activation at 10 µM (348 GPCRs [8]; [26]) [%] | activation at 10 µM (348 GPCRs [9]; [27]) [%] | activation at 100 µM (348 GPCRs [10]; [28]) [%] | other results
1 |  |  | 1.15 | -3.411 | -0.775 | 0.102 | -2.99 |  |  | 0.627 | NC(=O)c1nc(F)cnc1O [favipiravir, 6-fluoro-3-hydroxy-2-pyrazinecarboxamide] |  |  |  |  |  |  |  |  |  | activation at 100 µM (348 GPCRs [1]; GPCR M3 (Muscarinic acetylcholine receptor M3), 100μM, read-out: % GPCR activation compared to TPA): 0.164%; activation at 100 µM (348 GPCRs [2]; GPCR VIPR1 (vasoactive intestinal peptide receptor 1), 100μM, read-out: % GPCR activation compared to TPA): -0.983%; activation at 100 µM (348 GPCRs [8]; GPCR MC5R (melanocortin 5 receptor), 100μM, read-out: % GPCR activation compared to TPA): -0.921%; activation at 100 µM (348 GPCRs [9]; GPCR GPR62 (G protein-coupled receptor 62), 100μM, read-out: % GPCR activation compared to TPA): -1.63%
2 | -0.147 | -0.522 | -2.23 | 0.1275 | -0.633 | 0.933 | -1.93 | -1.47 | -0.851 | -1.82 | CC(C)C(=O)OC[C@H]1O[C@@H](n2ccc(NO)nc2=O)[C@H](O)[C@@H]1O [molnupiravir] |  |  |  |  |  |  |  |  |  | 

The next lines start with the molecule.

Row | Structure (SMILES) | activation at 10 µM (348 GPCRs [1]; [11]) [%] | activation at 10 µM (348 GPCRs [2]; [12]) [%] | activation at 10 µM (348 GPCRs [3]; [13]) [%] | % GPCR activation compared to TPA (348 GPCRs [4]) [%] | activation at 100 µM (348 GPCRs [5]; [14]) [%] | activation at 100 µM (348 GPCRs [6]; [15]) [%] | activation at 10 µM (348 GPCRs [7]; [16]) [%] | activation at 10 µM (348 GPCRs [8]; [17]) [%] | activation at 10 µM (348 GPCRs [9]; [18]) [%] | activation at 100 µM (348 GPCRs [10]; [19]) [%] | activation at 10 µM (348 GPCRs [1]; [20]) [%] | activation at 10 µM (348 GPCRs [2]; [21]) [%] | activation at 10 µM (348 GPCRs [3]; [22]) [%] | activation at 100 µM (348 GPCRs [5]; [23]) [%] | activation at 100 µM (348 GPCRs [6]; [24]) [%] | activation at 10 µM (348 GPCRs [7]; [25]) [%] | activation at 10 µM (348 GPCRs [8]; [26]) [%] | activation at 10 µM (348 GPCRs [9]; [27]) [%] | activation at 100 µM (348 GPCRs [10]; [28]) [%] | other results
3 | N#C[C@@]1(c2ccc3c(N)ncnn23)O[C@H](CO)[C@@H](O)[C@H]1O [GS441524] | 3.5 | -2.1 | 0.00909 | 1.005 | -0.479 | 1.05 | -1.18 | 0.908 | -0.286 | -2.2 |  |  |  |  |  |  |  |  |  | 
4 | CCC(CC)COC(=O)[C@H](C)N[P@](=O)(OC[C@H]1O[C@@](C#N)(c2ccc3c(N)ncnn23)[C@H](O)[C@@H]1O)Oc1ccccc1 [remdesivir] |  |  |  | -1.859 |  |  |  |  |  |  | 2.85 | -1.85 | 1.32 | 0.414 | 2.29 | -2.26 | 1.31 | 0.871 | -1.51 | 
5 | CC(C)OC(=O)[C@H](C)N[P@](=O)(OC[C@H]1O[C@@H](n2ccc(=O)[nH]c2=O)[C@](C)(F)[C@@H]1O)Oc1ccccc1 [sofosbuvir] |  |  |  | 0.2553 |  |  |  |  |  |  | -1.32 | 0.0833 | -3.34 | 1.23 | -7.92 | -0.922 | -2.87 | 1.52 | -1.26 | 
